# Laboratory results: US20060282906A1, “Non-transgenic rodent model of Alzheimer's disease” (priority 2005, published 2006)
# Marks after values point to notes of the source that are not given here. Where no end group is shown, it is not given here.
# Key:
# rats = assay: Barnes circular platform test; type: in vivo, rat; conditions: 50 nmol intracerebroventricular; memory test trial (day 8) vs last trial of training (day −1); P<0.01
# Description: All rats were anesthetized using 40 mg/kg of pentobarbital (Somnotol; MTC Pharmaceuticals, Cambridge, Ontario) intraperitoneally. Body temperature was maintained at 37° C. Aβ(25-35) (50 nmol in 10 μL of saline) was injected bilaterally into the lateral ventricles. Aβ(25-35) was prepared according to established methods (Sigurdsson, et al. (1997) supra). […] (1997) supra). […] After wound suture, all rats received […] of buprenorphine intramuscularly and were allowed to recover from surgery for 7 days. Learning and memory deficits were assessed using the Barnes circular platform. There are twenty holes evenly located along the border of circular platform with a hidden escape box beneath one of the holes. The circular platform is equipped with colored cues on the surrounding wall. A bright light combined with wind from a fan hung on the ceiling above the platform provides the incentive for the rats to find the hidden box and enter the escape hole. During each trial, the rats were initially placed in the center of the platform under an inverted box, then the box was lifted up and the rat is allowed to find the hole for up to 4 minutes. The latency (time to enter the escape hole) was recorded during the trial. There was a training period (trials 1-14) performed at day −7 to day −1 before surgery (day 0). PDTC or vehicle treatment was given 30 minutes before Aβ(25-35) injections and from days 1 to 7 post-surgery. Spatial memory was then tested on day 8 (trial 15) with the escape hole placed in the same location. Spatial learning was examined by re-testing (re-acquisition) from days 9 to 15 (trials 16-29) with the escape box relocated at […] from the original location. Digital photographs were taken using a light microscope (Leitz Diaplan). […] Also, relative optical density measurements and numbers of stained cells or accumulations were measured in entire brain areas for quantitative analysis and statistically analyzed with ANOVA and Tukey post hoc test with a significance level of P<0.05. […] The staircase data are expressed as the mean±SEM. […] Data are expressed as mean±SEM. […]
# Male Wistar rats [1] = assay: Montoya staircase test; type: in vivo, rat
# Description: (§1) Male Wistar rats (250 to 300 grams; Charles River, Montreal, Quebec) were divided into 4 groups: intracerebroventricular injections of Aβ(25-35) (BACHEM, Torrance, Calif.); endothelin injections into the right striatum; both Aβ(25-35) and striatal endothelin injections; and sham procedures. The Aβ(25-35) fragment was used to reduce the possibility of rapid coagulation and to allow diffusion of the peptide into the brain.
# (§2) All rats were anesthetized using 40 mg/kg of pentobarbital (Somnotol; MTC Pharmaceuticals, Cambridge, Ontario) intraperitoneally. Body temperature was maintained at 37° C. Aβ(25-35) (50 nmol in 10 μL of saline) was injected bilaterally into the lateral ventricles. Aβ(25-35) was prepared according to established methods (Sigurdsson, et al. (1997) supra). Aβ(25-35) (50 nmol in 10 μL of saline at a rate of 1 μL/minute) was injected bilaterally into the lateral ventricles via a stainless-steel cannula (23-gauge; anterior/posterior −0.8, medial/lateral ±1.4, and dorsal/ventral −4.0 below dura). Two endothelin injections (6 pmol in 3 μL of saline), 1 mm apart, were made into the right striatum (Sigurdsson, et al. (1997) supra). Sham procedures involved all the surgical steps without injections of Aβ(25-35) or endothelin. After wound suture, all rats received […] of buprenorphine intramuscularly and were allowed to recover from surgery for 7 days.
# For training (n=10 for each group), rats were placed into the Montoya staircase apparatus (Montoya, et al. (1991) supra) at the same time every day for 8 days (days −8 through −1) and were allowed to perform the test for 20 minutes. Rats were food-deprived for 1 day (day −9) before testing, as well as on day −8. On days −7 though −1, rats were fed 10 grams of their normal chow so that they maintained their body weight at ˜85%. Three NOYES LAB ANIMAL PRECISION FOOD PELLETS™ (Research Diets, Inc., New Brunswick, N.J.) were placed in each of the 14 wells (7 on each side). Pellets eaten were recorded from each well. Re-testing trials, which were performed 7 days after the surgical procedures (day 0), were performed for 8 days in the same way as the training trials (days 8 through 15).
# Digital photographs were taken using a light microscope (Leitz Diaplan). An investigator was blinded to the identification of the rat sections while analysis was being performed. […] Also, relative optical density measurements and numbers of stained cells or accumulations were measured in entire brain areas for quantitative analysis and statistically analyzed with ANOVA and Tukey post hoc test with a significance level of P<0.05. […] The staircase data are expressed as the mean±SEM. […] Data are expressed as mean±SEM. […]
# Male Wistar rats [2] = assay: Quantitative immunohistochemistry: relative optical density and numbers of stained cells or accumulations; type: in vivo, rat; conditions: for APP Accumulation / GFAP Intensity / OX6 Intensity: vehicle (not in brackets), mean ± SEM, n = 4
# Description: All rats were anesthetized using 40 mg/kg of pentobarbital (Somnotol; MTC Pharmaceuticals, Cambridge, Ontario) intraperitoneally. Body temperature was maintained at 37° C. Aβ(25-35) (50 nmol in 10 μL of saline) was injected bilaterally into the lateral ventricles. Aβ(25-35) was prepared according to established methods (Sigurdsson, et al. (1997) supra). Aβ(25-35) (50 nmol in 10 μL of saline at a rate of 1 μL/minute) was injected bilaterally into the lateral ventricles via a stainless-steel cannula (23-gauge; anterior/posterior −0.8, medial/lateral ±1.4, and dorsal/ventral −4.0 below dura). Two endothelin injections (6 pmol in 3 μL of saline), 1 mm apart, were made into the right striatum (Sigurdsson, et al. (1997) supra). Sham procedures involved all the surgical steps without injections of Aβ(25-35) or endothelin. After wound suture, all rats received 40 mg/kg of buprenorphine intramuscularly and were allowed to recover from surgery for 7 days.
# Twenty-one days after surgery, all animals were euthanized via pentobarbital overdose and perfused transaortically first with saline followed by 4% formaldehyde (pH 7.4). The brains were removed and cryoprotected in 30% sucrose for 36 hours at 4° C. Coronal sections (30 pm) were cut using a cryostat.
# Free-floating sections from rat brains (n=5 for each group) were treated with 0.03% hydrogen peroxide and blocked with 3 mL of horse or rabbit serum (VECTASTAIN® Elite, Vector Laboratories, Burlingame, Calif.). The following primary antibodies were diluted in filtered phosphate-buffered saline: APPa4 mouse monoclonal (Chemicon International Inc, Temecula, Calif.; 1:1000), GFAP mouse monoclonal (Sigma-Aldrich, St Louis, Mo.; 1:1000), OX-6 mouse monoclonal (Serotec, Inc., Raleigh, N.C.; 1:1000), Tau-2 mouse monoclonal (Sigma-Aldrich, St Louis, Mo.; 1:10000), NFκB(p65) goat polyclonal (Santa Cruz Biotechnologies, Santa Cruz, Calif.; 1:1000), IL-1β goat polyclonal (Santa Cruz Biotechnologies, Santa Cruz, Calif.; 1:1000), and TNF-α-M18 goat polyclonal (Santa Cruz Biotechnologies, Santa Cruz, Calif.; 1:1000). APP-, Tau-2-, GFAP-, and OX-6-stained sections were incubated with 3 mL of horse biotinylated anti-mouse secondary antibody and horse serum. NFκB(p65), IL-1β, and TNF-α-stained sections were incubated with 3 mL of biotinylated rabbit anti-goat secondary antibody and rabbit serum. Sections were then incubated in 3 mL of avidin-biotin complex followed by 0.05% diaminobenzidine. Sections were washed, air-dried, cleared in xylene, and cover-slipped. Brains to be compared were processed at the same time using the same solutions to reduce variability in immunostaining caused by separate processing.
# Digital photographs were taken using a light microscope (Leitz Diaplan). An investigator was blinded to the identification of the rat sections while analysis was being performed. All immunohistochemical data that were compared was processed at the same time to reduce any variation caused by differences of intensity. A grading scale was based on both observable size and intensity of staining (n=5 for each group). Also, relative optical density measurements and numbers of stained cells or accumulations were measured in entire brain areas for quantitative analysis and statistically analyzed with ANOVA and Tukey post hoc test with a significance level of P<0.05.
# Male Wistar rats [3] = assay: Congo Red histochemistry of rat brain sections; type: in vivo; conditions: Aβ: lesions in fornix, anterior hippocampus, CA1 hippocampus; endothelin: infarct
# Description: as §1
# as §2, with “days. […]” for “days.”
sequence,measurement,setting,value
"GSNKGAIIGLM [Aβ, β-amyloid fragment (25-35), 50 nmol injected bilaterally into the lateral ventricles of rats]",latency (time to enter the escape hole),rats,increased latency
same,"Staircase test performance, ipsilateral paw","Male Wistar rats [1]; day 8 (first day of re-testing), mean±SEM",73±8 % of pretreatment
same,total number of pellets eaten,"Male Wistar rats [1]; day 8 compared with the last day of training, disappeared by day 9",significant deficit
same,average numbers of OX-6-stained microglia,Male Wistar rats [2]; CA1 of the hippocampus,13.4±5.1
same,Average intensity measurements for GFAP,Male Wistar rats [2]; Hippocampus,162.9±8.7
same,APP Accumulation,Male Wistar rats [2]; Left Cortex,36.8 ± 7.8^y
same,GFAP Intensity,Male Wistar rats [2]; Left Hippocampus,167.5 ± 5.2
same,OX6 Intensity,Male Wistar rats [2]; Left Hippocampus,116.2 ± 6.7
same,APP Accumulation,Male Wistar rats [2]; Right Cortex,37.8 ± 5.4^y
same,GFAP Intensity,Male Wistar rats [2]; Right Hippocampus,166.5 ± 4.2
same,OX6 Intensity,Male Wistar rats [2]; Right Hippocampus,119.3 ± 9.1
same,Congo Red staining,Male Wistar rats [3],stained amyloid positive with Congo Red
